Test results published in ChEMBL document CHEMBL5143519, “Exploring disordered loops in DprE1 provides a functional site to combat drug-resistance in Mycobacterium strains” (Eur J Med Chem, 2022).
In brackets after ≈: the same amount, converted by molar mass. Activity calls are given as the source filed them. No cut-off for these calls is given here.

Legend:
[1] = tested on: Mycobacterium tuberculosis variant bovis; experiment: Antimycobacterial activity against Mycobacterium bovis BCG assessed as inhibition of bacterial growth incubated for 7 days by microplate alamar blue assay; assay type: functional; conditions: 168 h, time 7 day
[2] = tested on: Mycobacterium tuberculosis variant bovis; experiment: Antimycobacterial activity against Mycobacterium bovis BCG overexpressing DprE1 assessed as inhibition of bacterial growth incubated for 7 days by microplate alamar blue assay; assay type: functional; conditions: 168 h, time 7 day
[3] = tested on: Mycobacterium tuberculosis variant bovis; experiment: Antimycobacterial activity against Mycobacterium bovis BCG assessed as reduction in bacterial colony forming units at 20 times MIC concentration measured after 21 days by time kill assay; assay type: functional; conditions: time 21 day
[4] = tested on: Mycobacterium tuberculosis variant bovis; experiment: Antimycobacterial activity against Mycobacterium bovis BCG assessed as reduction in bacterial colony forming units at 20 times MIC concentration measured after 7 days by time kill assay; assay type: functional, organism-based; conditions: time 7.0 day
[5] = tested on: Mycobacterium tuberculosis variant bovis; experiment: Antimycobacterial activity against Mycobacterium bovis BCG overexpressing DprE1 assessed as reduction in bacterial colony forming units at 20 times MIC concentration measured after 21 days by time kill assay; assay type: functional, organism-based; conditions: time 21.0 day

SMILES	MIC [1] [µM]	MIC [2] [µM]	Activity [3] [log10CFU/ml]	Activity [4]	Activity [5]
O=C(NC(=O)c1ccsc1NC(=O)c1nc2ccccc2s1)OCC1CCC1	12 (≈ 4.99 µg/mL)	30 (≈ 12.5 µg/mL)	–	–	–
CCOC(=O)NC(=O)c1ccsc1NC(=O)c1nc2ccccc2s1	13.3 (≈ 4.99 µg/mL)	66.5 (≈ 25 µg/mL)	3	–	–
O=C(NC(=O)c1ccsc1NC(=O)c1nc2ccccc2s1)OCC1CC1	3.11 (≈ 1.25 µg/mL)	12.4 (≈ 4.99 µg/mL)	3	Active	Active
CO[C@H]1/C=C/O[C@@]2(C)Oc3c(C)c(O)c4c(O)c(c(/C=N/N5CCN(C)CC5)c(O)c4c3C2=O)NC(=O)/C(C)=C\C=C\[C@H](C)[C@H](O)[C@@H](C)[C@@H](O)[C@@H](C)[C@H](OC(C)=O)[C@@H]1C [RIFAMPIN]	0.35 (≈ 0.288 µg/mL)	0.35 (≈ 0.288 µg/mL)	3	–	–
